What was measured:
Assay type in all cases: cell-based
H9c2 cells [1] = test: Intracellular RSSH analysis by LC-MS/MS after subcellular fractionation; settings: 200 μM, 2 h; for HPE-AM adducts of Cys-SSH and GSSH, cytoplasmic fraction: vs vehicle; for Cys-SH and GSH in mitochondria: did not reach statistical significance
Experimental: After confirming efficient esterase-triggered RSSH generation from these newly developed precursors in PBS (pH 7.4), we next evaluated their ability to release RSSH in cardiac cells. […] H9c2 cells were treated with each donor (200 μM, 2 h), followed by subcellular fractionation using differential centrifugation to isolate cytoplasmic and mitochondrial fractions. Each fraction was subsequently incubated with the RSSH-trapping agent HPE-IAM (5 mM in methanol) to alkylate and stabilize transient RSSH species. The resulting adducts were analyzed by LC–MS/MS.[40, 41] In the cytoplasmic fraction, both donors increased HPE-AM adducts of Cys-SSH and GSSH, with APT-1 showing higher levels than APT-1-TPP (Figure 3a,b).
Figure 3. Measurement of cysteine hydropersulfide (Cys-SSH) and glutathione hydropersulfide (GSSH) in cytoplasm (a and b) and mitochondria (c and d) of H9c2 cells. Cells were treated with APT-1 (200 μM), APT-1-TPP (200 μM), or vehicle (0.01% DMSO in serum-free medium) for 2 h, followed by subcellular fractionation. Each fraction was incubated with HPE-IAM (5 mM, 30 min) to trap RSSH species prior to LC–MS/MS analysis. Data are mean ± SEM (n = 3); *p ≤ 0.05, **p ≤ 0.01. […]
Intracellular RSSH Analysis by LC-MS
H9c2 cells were cultured in 150-mm dishes to 80–90% confluency and treated for 2 h with either control medium (FBS-free DMEM, 0.01% DMSO) or 200 μM RSSH donors (FBS-free DMEM with APT-1 or APT-1-TPP). Cells were washed two times with warm PBS, collected by scraping, and centrifuged at 1,000 × g for 10 min at 4 °C (Sorvall ST 8R, ThermoFisher). Pellets were resuspended in 0.6 mL sucrose buffer; ¼ was reserved for BCA assay and ¾ used for fractionation. Cells were lysed on ice by 20 passages through a 26-G needle and centrifuged at 1,500 × g for 10 min at 4 °C (Z 216 MK, HERMLE). Pellets (nuclear/debris fraction) were collected, and supernatants were centrifuged at 12,000 × g for 10 min at 4 °C. Pellets (mitochondrial fraction) and supernatants (cytoplasmic fraction) were collected. Each of these fractions were resuspended in methanol containing 5 mM HPE-IAM, sonicated (3 × 10 s on/10 s off, Branson Sonifier SFX150), incubated at 37 °C for 30 min, and centrifuged at 16,000 × g for 10 min at 4 °C.
Supernatants were analyzed by MRM LC-MS/MS (Ultivo Triple Quadrupole, Agilent) using a Poroshell 120 EC-C18 column (4.6 × 100 mm, 2.7 μm; Agilent) at 30 °C, 0.6 mL/min, with the following gradient (solvent A: water + 0.1% TFA; solvent B: acetonitrile + 0.1% TFA): 0–1.5 min, […]
min, 97% A. Injection volume: 10 μL. Experiments were performed in triplicate (n = 3 biological replicates). Data are shown as mean ± SEM. […]
Ta b l e S1. MRM parameters for LC-MS/MS
Analyte Polarity Precursor ion Product ion Collision energy
Figure S21. Measurement of H2S2, and H2S in cytoplasm (A, B) and mitochondria (C,D) of H9c2 cells treated with APT-1 (200 µM) APT-1-TPP (200 µM), or vehicle (0.01% DMSO in serum-free medium) for 2 h. Data are mean ± SEM (n = 3); *p ≤ 0.05, **p ≤ 0.01.
Figure S22. Measurement of Cys-SH and GSH in cytoplasm (A, B) and mitochondria (C, D) of H9c2 cells […]
Cytotoxicity Assessment of Hydropersulfide Precursors in H9c2 and HepG2 cells Cell viability was measured using the Cell Counting Kit-8 (CCK-8, Dojindo).[7] H9c2 cardiomyoblast and HepG2 cells were seeded at a density of 8 × 10³ cells/well in a 96-well plate (flat-bottom, tissue culture-treated). […]

HepG2 cells = test: Intracellular ATP levels (CellTiter-Glo) under DOX; settings: donor 25 μM, 4 h pretreatment, DOX 5 μM 24 h
Experimental: (§1) Figure 6. a) Basal sulfane sulfur (SS) levels in H9c2 cardiomyocyte, MDA-MB-468, MCF-7, and HepG2 cell lines as detected by SSP4 fluorescence. b) Representative images and c) basal levels of mitochondrial membrane potential (MMP) in H9c2 and cancer cells (MDA-MB-468, MCF-7, and HepG2). d) Impact of APT-1 (25 μM) or APT-1-TPP (25 μM) on MMP in DOX (5 μM)-treated (d) H9c2 and e) HepG2 cells. Impact of APT-1 (25 μM) and APT-1-TPP (25 μM) on ATP levels in DOX (5 μM)-treated f) H9c2 and g) HepG2 cells. Results are expressed as mean ± SEM, n = 3–6; *P < 0.05, **P < 0.01, ***P < 0.001, ****P < 0.0001. Significances in (a) and (c) are presented with respect to H9c2 cells.
(§2) We then examined how RSSH donors influence MMP during DOX exposure. As expected, DOX alone induced mitochondrial depolarization in H9c2 cells, reducing MMP to ca. 50% of control (Figure 6d). […] To complement these observations, we quantified intracellular ATP levels as a functional readout of mitochondrial activity. […]
(§3) Briefly, H9c2 cells and HepG2 cells were seeded in 96-well white-bottom plate (Alkali Scientific, SKU:TPW9096, TC-treated) at 5000 cells/well. After treatment (Ctrl, 5 μM DOX alone, 4 h pretreatment of 25 μM APT-1 + 24 h cotreatment with 5 μM DOX, and 4 h pretreatment of 25 μM APT-1-TPP + 24 h cotreatment with 5 μM DOX, in clear DMEM medium with 10% FBS), cells were equilibrated at rt for 30 min before CellTiter-Glo® reagent was added to each well. Plates were then placed on an orbital shaker for 2 min and incubated at rt for another 20 min.
(§4) Chemiluminescence was measured using Tecan plate reader (SPARK Part No. 30124664 Version 1.7, serial No. 1909010319). Cellular AT P concentration was calculated based on the AT P calibration curve and normalized to cell count. […] Each treatment condition was performed in 6 technical replicates per biological replicate, and the experiment was independently repeated three times (n = 3 biological replicates).
(§5) Data are presented as mean ± SEM. […]

H9c2 cells [2] = test: Intracellular ATP levels (CellTiter-Glo) under DOX; settings: donor 25 μM, 4 h pretreatment, DOX 5 μM 24 h
Experimental: as §1, §2, §3, §4, §5

Structure (SMILES)	Cys-SH and GSH in the cytoplasm (H9c2 cells [1])	H2S and H2S2 levels in the cytoplasm (H9c2 cells [1])	HPE-AM adducts of Cys-SSH and GSSH, cytoplasmic fraction (H9c2 cells [1])	Cys-SH and GSH in mitochondria (H9c2 cells [1])	effect on DOX-induced ATP depletion (HepG2 cells)	effect on DOX-reduced ATP levels (H9c2 cells [2])	H2S and H2S2 levels in mitochondria (H9c2 cells [1])	Cys-SSH and GSSH adducts, mitochondrial fraction (H9c2 cells [1]; compared with APT-1)
COC(=O)C(NC(C)=O)C(C)(C)SSC(=O)N(C)CCOC(C)=O (stereo not shown) [APT-1]	significant increases	elevated	increased	modest increases	neither donor rescued DOX-induced ATP depletion	restored	–	–
CC(=O)NC(C(=O)N(C)CCC[P+](c1ccccc1)(c1ccccc1)c1ccccc1)C(C)(C)SSC(=O)N(C)CCOC(C)=O (stereo not shown) [APT-1-TPP]	significant increases	–	increased	modest increases	neither donor rescued DOX-induced ATP depletion	restored	elevated	substantially higher levels

Source: PMC13224100, “Esterase-Responsive Mitochondria-Targeted Hydropersulfide Donors Mitigate Doxorubicin Cardiotoxicity While Preserving Anticancer Activity” (Angewandte Chemie (International ed. in English), 2025)
